Test [1] relates to Pyricularia oryzae (PYRIOR). As to the kind of experiment: microbe, parasite or virus in culture. The note with it: for Observed efficacy: single active; for inhibition of growth at 0.063 ppm / inhibition of growth at 0.016 ppm: Pyricularia oryzae, 168 h, read-out: Observed efficacy. The format is cell-based.
For test [2], the system named is Puccinia triticina (syn. P. recondita). Nature of the test: Green house use example 10: preventative control of brown rust on wheat (PUCCRT P10). The format is in vivo.
The test system is the same in test [3]. Nature of the test: Green house use example 9: curative control of brown rust on wheat (PUCCRT K4). The format is in vivo.
Test [4] concerns Phakopsora pachyrhizi. As to the kind of experiment: Green house use example 13: curative control of soybean rust on soybeans (PHAKPA F129L K4). The format is in vivo.
Test [5] relates to Phakopsora pachyrhizi. Nature of the test: Green house use example 14: protective control of soybean rust on soybeans (PHAKPA F129L P2). The following applies: single compound, 0.5 ppm. The test is classed as in vivo.
Test [6] has as its system Septoria tritici (SEPTTR). Nature of the test: microbe, parasite or virus in culture. The note with it: for inhibition of growth at 0.063 ppm / inhibition of growth at 0.25 ppm / inhibition of growth at 1 ppm: Zymoseptoria tritici, 168 h, read-out: Observed efficacy. The test is classed as cell-based.
Test [7] relates to Sclerotinia sclerotiorum (SCLESC). As to the kind of experiment: microbe, parasite or virus in culture. The test is classed as cell-based. The note with it: for inhibition of growth at 0.063 ppm / inhibition of growth at 1 ppm / inhibition of growth at 0.016 ppm / inhibition of growth at 0.25 ppm: Sclerotinia sclerotiorum, 168 h, read-out: Observed efficacy.
Test [8] deals with Pyrenophora teres (PYRNTE), Qol resistant (F129L). As to the kind of experiment: microbe, parasite or virus in culture. The test is classed as cell-based. The following applies: for inhibition of growth at 0.016 ppm / inhibition of growth at 0.063 ppm / inhibition of growth at 0.25 ppm / inhibition of growth at 1 ppm: Pyrenophora teres, 168 h, read-out: Observed efficacy.
The subject of test [9] is Alternaria solani (ALTESO). Nature of the test: microbe, parasite or virus in culture. The test is classed as cell-based. The following applies: Alternaria solani, 168 h, read-out: Observed efficacy.
The subject of a further test is Monilinia sp. (MONISP). As to the kind of experiment: microbe, parasite or virus in culture. The test is classed as cell-based. The following applies: Monilinia, 168 h, read-out: Observed efficacy.
Test [10] deals with Phakopsora pachyrhizi. The note with it: in vivo.
In test [11] the test system is Cercospora sojina (CERCSO). The test is classed as cell-based.
In test [12] the test system is Corynespora cassiicola (CORYCA), Qol resistant (G143A); SDHI resistant (N75S in SdHC). The format is cell-based.
Test [13] deals with Blumeria graminis f. sp. tritici. As to the kind of experiment: Green house use example 11: control of powdery mildew on wheat, sprayed 2 days after inoculation (ERYSGT K2). The note with it: G143A strain, single active. The format is in vivo.
Setting [14] is: Trial 1, single compound, 4 ppm.
Where [15] appears, read: Trial 3, single compound, 4 ppm.
Setting [16] is: Trial 2, single compound, 1 ppm.
[17] abbreviates: Trial 2, single compound, 2 ppm.
The mark [18] stands for this setting: Trial 1, single compound, 1 ppm.

Structures are written as SMILES. “And” between values parts separate entries of the source, which are not always exact repeats. Equal entries are not always repeated. Where two headings read alike, the source gives them in different places.

`Cn1cc(C(=O)Nc2ccccc2-c2cc(F)c(F)c(F)c2)c(C(F)F)n1` [fluxapyroxad, reference compound]: the Observed efficacy in test [1] (1 ppm) is recorded as 19%; in [2] (1 ppm) it was 42; in test [3] (1 ppm) it was 20; in test [3] (2 ppm) it was 67.

As to `CO/C=C(/C(=O)OC)c1cccc(Cl)c1CO/N=C(\COC)c1c(F)cc(F)cc1F` [I.9, Methyl-(E)-2-[3-chloro-2-[[(Z)-[2-methoxy-1-(2,4,6-trifluorophenyl)ethylidene]-amino]oxymethyl]phenyl]-3-methoxy-prop-2-enoate], the Observed efficacy with Phakopsora pachyrhizi [4] (setting [14]) is 12; in the test with Phakopsora pachyrhizi [4] (setting [15]) it was 3; in the test on Phakopsora pachyrhizi [5], 59; in test [3] (setting [16]) it was 0; in test [3] (setting [17]), 0; in the test on Phakopsora pachyrhizi [10], 60. Also, the inhibition of growth at 0.063 ppm came out at 32% in test [1]; 0% in [6]; 11% in test [7]; 44% in [8]; 3% in [9]; 42% in the test with Monilinia sp. (MONISP). Besides, the results for the inhibition of growth at 0.25 ppm (in test [6]; in test [8]; with Monilinia sp. (MONISP)) were 6%, 74% and 76%, respectively. Besides, the inhibition of growth at 1 ppm was 60% in [6] and 50% in [7]. The inhibition of growth at 0.016 ppm in [8] was found to be 7%. Besides, the inhibition of growth at 0.004 ppm in [9] worked out at 1%. The inhibition of growth at 0.001 ppm in the test with Monilinia sp. (MONISP) worked out at 17%.

`CO/C=C(/C(=O)OC)c1cccc(C)c1CO/N=C(\COC)c1ccc(F)cc1` [I.4, Methyl (E)-2-[2-[[(Z)-[1-(4-fluorophenyl)-2-methoxy-ethylidene]amino]oxymethyl]-3-methyl-phenyl]-3-methoxy-prop-2-enoate]: the Observed efficacy with Phakopsora pachyrhizi [4] (Trial 1, single compound, 2 ppm) came out at 36; in [2] (wheat, sprayed 10 days before inoculation, single active, 2 ppm), 12; in [3] (setting [16]), 49. In addition, the inhibition of growth at 0.016 ppm was 28% in test [1] and 0% in [7]. Further, the inhibition of growth at 0.063 ppm in test [6] came out at 16%; in test [7], 0%; in [8], 39%; in test [9] it was 50%. For the same compound, the inhibition of growth at 0.25 ppm in test [6] was found to be 43%. In addition, the inhibition of growth at 1 ppm in test [7] amounted to 41%; in test [8] it was 64%.

With `CO/C=C(/C(=O)OC)c1cccc(C)c1CO/N=C(\COC)c1ccc(F)cc1F` [I.7, Methyl (E)-2-[2-[[(Z)-[1-(2,4-difluorophenyl)-2-methoxy-ethylidene]amino]oxymethyl]-3-methyl-phenyl]-3-methoxy-prop-2-enoate], the Observed efficacy is 41 with Phakopsora pachyrhizi [4] (setting [14]); 74 in the test with Phakopsora pachyrhizi [4] (setting [15]); 2% and 0% in [11]; 85 in the test on Phakopsora pachyrhizi [5]; 19 in [2] (wheat, sprayed 10 days before inoculation, single active, 1 ppm); 9 in test [3] (setting [18]). Moreover, in test [3] (setting [14]), the Observed efficacy was determined as 67. The inhibition of growth at 0.016 ppm in test [1] is 27%; in test [7] it was 3%; in test [8], 19%; in test [9], 2%. The inhibition of growth at 0.063 ppm worked out at 66% in test [1]; 0% in [6]; 2% in test [7]; 46% in test [8]; 32% in [9]; 45% in the test on Monilinia sp. (MONISP). The inhibition of growth at 0.25 ppm in test [6] was determined as 55%; in test [7], 20%; in test [8], 76%. In test [9], the inhibition of growth at 0.004 ppm worked out at 8%.

Turning to `Cc1nc2c(F)c(F)ccc2cc1Oc1cccc(F)c1C(C)(C)O` [ipflufenoquin, reference compound], the Observed efficacy in test [12] is 11%; in test [1] (0.004 ppm) it was 12%; in [1] (0.016 ppm), 15%; in test [1] (0.063 ppm), 12%; in test [6] it was 48 and 41 and 26; in [7] it was 4 and 3.

In the case of `CO/C=C(/C(=O)OC)c1cccc(C)c1CO/N=C(\COC)c1c(F)cc(F)cc1F` [I.10, Methyl (E)-3-methoxy-2-[2-[[(Z)-[2-methoxy-1-(2,4,6-trifluorophenyl)ethylidene]-amino]oxymethyl]-3-methyl-phenyl]prop-2-enoate], the Observed efficacy with Phakopsora pachyrhizi [4] (setting [16]) stood at 13; with Phakopsora pachyrhizi [4] (Trial 2, single compound, 4 ppm), 22; in the test on Phakopsora pachyrhizi [4] (setting [15]), 32; in test [13] (16 ppm), 7; in test [3] (setting [18]), 3; in test [3] (setting [14]) it was 14. Also, the inhibition of growth at 0.063 ppm was 43% in test [1]; 0% in test [6]; 3% in test [7]; 40% in [8]; 0% in [9]. In addition, the figures for the inhibition of growth at 0.25 ppm in [6], in [7] and in test [9] were 26%, 13% and 0%, respectively. Besides, the values for the inhibition of growth at 1 ppm in test [6] and in [8] were 55% and 65%, respectively. Further, the inhibition of growth at 0.016 ppm in [7] is 0%; in test [8], 15%; in test [9], 0%.

As for `CO/C=C(/C(=O)OC)c1cccc(Br)c1CO/N=C(\COC)c1c(F)cc(F)cc1F` [I.11, Methyl (E)-2-[3-bromo-2-[[(Z)-[2-methoxy-1-(2,4,6-trifluorophenyl)ethylidene]-amino]oxymethyl]phenyl]-3-methoxy-prop-2-enoate], the Observed efficacy in the test on Phakopsora pachyrhizi [4] (setting [14]) came out at 12; in the test with Phakopsora pachyrhizi [4] (setting [15]), 12; with Phakopsora pachyrhizi [5] it was 59; in [13] (63 ppm), 14; in [3] (setting [18]) it was 1; in [3] (setting [14]), 14. Further, the Observed efficacy in test [3] (setting [16]) and in test [3] (setting [17]) was 0 each time. Besides, the inhibition of growth at 0.063 ppm is 34% in [1]; 0% in test [6]; 2% in test [7]; 44% in test [8]; 0% in test [9]. Also, the figures for the inhibition of growth at 0.25 ppm in test [6], in test [8] and in test [9] were 14%, 71% and 0%, respectively. For the same compound, in test [6], the inhibition of growth at 1 ppm was found to be 70%. The inhibition of growth at 0.016 ppm in [8] stood at 6%. Further, the inhibition of growth at 0.001 ppm in the test with Monilinia sp. (MONISP) is 0%. In the test on Monilinia sp. (MONISP), the inhibition of growth at 0.004 ppm turned out to be 17%.

As for `COc1ccnc(C(=O)N[C@@H](C)C(=O)O[C@@H](C)C(c2ccc(F)cc2)c2ccc(F)cc2)c1OC(C)=O` [florylpicoxamid, reference compound], the Observed efficacy in test [12] is 13%; in test [1] (0.016 ppm), 66%; in test [11], 16%; in [8] it was 39 and 21.

The values above are taken from patent EP4640052A1 (BASF SE, priority 2024, dated 2025).
